Among the data in patent publication US8324251B2, “Cyclic modulators of chemokine receptor activity” (Bristol-Myers Squibb Company, priority 2006, dated 2012) are Ki values, retold here.

Structures are written as SMILES. Counter-ions that a name gives are not always drawn.

The target of this assay is T1, CCR1 (Homo sapiens, UniProt P32246).
T1 construct: the THP-1 cell line, which expresses the endogenous CCR1 receptor; endogenous in cells; host or cells: THP-1 cells (human monocytic cell line)
T1 sequence (P32246 1-355): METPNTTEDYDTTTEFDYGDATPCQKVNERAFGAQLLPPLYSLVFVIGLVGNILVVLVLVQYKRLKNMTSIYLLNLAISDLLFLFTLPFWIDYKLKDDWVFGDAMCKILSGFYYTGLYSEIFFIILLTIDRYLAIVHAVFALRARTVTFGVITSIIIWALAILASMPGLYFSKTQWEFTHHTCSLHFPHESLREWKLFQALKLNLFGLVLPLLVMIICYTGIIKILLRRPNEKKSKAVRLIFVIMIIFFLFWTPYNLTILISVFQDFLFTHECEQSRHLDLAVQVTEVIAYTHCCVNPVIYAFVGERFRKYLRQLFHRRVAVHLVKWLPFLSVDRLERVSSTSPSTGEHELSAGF
Description: Antagonism of MIP-1α binding to human THP-1 cells (125-I MIP-1α radioligand binding). The settings on record: 125-I labeled human MIP-1α, THP-1 cells expressing endogenous CCR1; read-out: CCR1 Binding Ki (n = 1 unless otherwise noted). On the procedure: Antagonism of MIP-1α Binding to Human THP-1 Cells
Compounds of the present invention have activity in the antagonism of MIP-1α binding to human THP-1 cells described here.
Millipore filter plates (#MABVN1250) are treated with 100 μl of binding buffer (0.5% bovine serum albumin, 20 mM HEPES buffer and 5 mM magnesium chloride in RPMI 1640 media) for thirty minutes at room temperature. To measure binding, 50 μl of binding buffer, with or without a known concentration of compound, is combined with 50 μl of ^125-I labeled human MIP-1α (to give a final concentration of […] radioligand) and 50 μl of binding buffer containing 5×10^5 cells. Cells used for such binding assays can include the THP-1 cell line, which expresses the endogenous CCR1 receptor, or human peripheral blood mononuclear cells, isolated by Ficoll-Hypaque gradient centrifugation, or human monocytes (Weiner et al., J. Immunol. Methods, 1980, 36, 89). The mixture of compound, cells and radioligand is incubated at room temperature for thirty minutes. Plates are placed onto a vacuum manifold, vacuum applied, and the plates washed three times with binding buffer containing 0.5M NaCl. The plastic skirt is removed from the plate, the plate allowed to air dry, the wells punched out and counted. The percent inhibition of binding is calculated using the total counts obtained in the absence of any competing compound and the background binding determined by addition of 100 nM MIP-1α in place of the test compound.
Compounds of the present invention were tested in the assay described immediately above and the results, including results from the chiral separation of Example 1c, shown in Table 2 below were obtained.
Take `NC(=O)Nc1cc(Cl)ccc1OCC(O)C1CCN(Cc2ccc(Cl)cc2)CC1` (racemic) [Example 1a, 1-(5-Chloro-2-(2-(1-(4-chlorobenzyl)piperidin-4-yl)-2-hydroxyethoxy)phenyl)urea, TFA salt]: the Ki stood at 4.49 ± 1.15 nM.

Turning to `OC(COc1ccc(Cl)cc1)C1CCN(Cc2ccc(Cl)cc2)CC1` (racemic) [Example 1i, 1-(1-(4-Chlorobenzyl)piperidin-4-yl)-2-(4-chlorophenoxy)ethanol, TFA salt], the Ki came out at 111 nM.

With `OC(COc1ccc(Cl)cc1)C1CCN(Cc2ccccc2)CC1` (racemic) [Example 1l, 1-(1-Benzylpiperidin-4-yl)-2-(4-chlorophenoxy)ethanol, TFA salt], the Ki was 6440 nM.

Consider `NC(=O)Nc1cc(Cl)ccc1OCC(O)C1CCN(Cc2ccc(Cl)c(Cl)c2)CC1` (single isomer, unassigned) [1c Enantiomer 1], for which the Ki amounted to 1500 nM.

On to `NC(=O)Nc1cc(Cl)ccc1OCC(O)C1CCN(Cc2ccc(Cl)c(Cl)c2)CC1` (single isomer, unassigned) [1c Enantiomer 2], for which the Ki came to 6.1 ± 0.71 nM.
